Reference: patent US20210137118A1, “NEW USES OF 9-(3-DEOXY-BETA-D-RIBOFURANOSYL)ADENINE” (Agroquimicos De Levante, S.A., priority 2018, published 2021)

Columns and labels:
Anacridium aegyptium = assay: Laboratory tests on orthoptera; format: in vivo
Halyomorpha halys = assay: Laboratory tests on heteroptera; format: in vivo
Meloidogyne incognita = assay: In vitro test on M. incognita eggs (egg hatching, petri dishes); details: tested concentration 5%

Q: Which “effect on adult forms of orthoptera (Anacridium aegyptium)” value (Anacridium aegyptium) does the source give for Nc1ncnc2c1ncn2[C@@H]1O[C@H](CO)C[C@H]1O [9-(3-Deoxy-β-D-ribofuranosyl)adenine] here?
A: no significant effect

Q: What about the “effect on adult forms of heteroptera (Halyomorpha halys)” value (Halyomorpha halys) of the same compound?
A: no significant effect

Q: And the “action on free larvae included in the ovisacs” value (Meloidogyne incognita)?
A: good action

Q: And the “effect on egg embryogenesis” value (Meloidogyne incognita)?
A: inhibition of egg embryogenesis
